Test system: Cynomolgus monkey
Experiment: Compound was evaluated for pseudo Hill coefficients (nH) in cynomolgus monkeys
Assay type: ADME, organism-based, Macaca fascicularis
Conditions: in vivo

Row | SMILES | Hill coefficient
1 | COC(=O)[C@H]1[C@@H](OC(=O)c2ccccc2)C[C@@H]2CC[C@H]1N2C [COCAINE] | 0.54 nH
2 | C=CCN1C2CCC1C(C(=O)OC)[C@@H](c1ccc(F)cc1)C2 (stereo not given in full) | 0.65 nH
3 | COC(=O)C1C2CCC(C[C@@H]1c1ccc(F)cc1)N2 (stereo not given in full) | 0.64 nH
4 | CCCN1C2CCC1C(C(=O)OC)[C@@H](c1ccc(F)cc1)C2 (stereo not given in full) | 0.7 nH
5 | COC(=O)[C@H]1[C@@H](c2ccc(F)cc2)C[C@H]2CC[C@H]1N2C | 0.66 nH
